Assay [1] is described as follows: Resistance factor, ratio of IC50 for human LCC-6 cells expressing P-glycoprotein to IC50 for P-glycoprotein deficient wild type human LCC-6 cells. In kind it is functional. Further details: reference not given here.
Assay [2] in a line: Cytotoxicity against P-glycoprotein deficient wild type human LCC-6 cells after 72 hrs. In kind it is functional, cell-based. The following applies: LCC-6, 72 h.
Assay [3] concerns MCF7. Kind of assay: Resistance factor, ratio of IC50 for human MCF7 cells expressing P-glycoprotein to IC50 for P-glycoprotein deficient wild type human MCF7 cells. The assay is classed as functional.
Assay [4] relates to MCF7. The assay can be described thus: Cytotoxicity against P-glycoprotein deficient wild type human MCF7 cells after 72 hrs. In kind it is functional, cell-based. The conditions noted are these: MCF7, 72 h.
In assay [5] the test system is MCF7. Kind of assay: Cytotoxicity against human MCF7 cells expressing P-glycoprotein after 72 hrs. The assay is classed as functional, cell-based. The following applies: MCF7, 72 h.
For another assay, the system named is HT-29. Kind of assay: Cytotoxicity against human HT-29 cells after 72 hrs. In kind it is functional, cell-based. The conditions noted are these: HT-29, 72 h.

A word on the IC50: it is the concentration needed to halve the response being measured. `CC(=O)O[C@@]12CO[C@@H]1C[C@H](O)[C@@]1(C)C(=O)[C@H](OC(=O)OCc3ccccc3)C3=C(C)[C@@H](OC(=O)[C@H](O)[C@H](C=C(C)C)NC(=O)OC(C)(C)C)C[C@@](O)([C@@H](OC(=O)c4ccccc4)[C@H]21)C3(C)C`: the Ratio in assay [1] was 9.3. For the same compound, the IC50 in assay [2] worked out at 1.8 nM.
In the case of `CC(=O)O[C@H]1C(=O)[C@@]2(C)[C@H]([C@H](OC(=O)c3cccc(N=[N+]=[N-])c3)[C@]3(O)C[C@H](OC(=O)[C@H](O)[C@H](C=C(F)F)NC(=O)OC(C)(C)C)C(C)=C1C3(C)C)[C@]1(OC(C)=O)CO[C@@H]1C[C@@H]2O`, the Ratio in the assay with MCF7 [3] stood at 3.7. Also, the results for the IC50 in the assay on MCF7 [4] and in the assay with MCF7 [5] were 0.092 nM and 0.34 nM, respectively.
In the case of `COc1ccccc1C(=O)O[C@H]1C(=O)[C@@]2(C)[C@H]([C@H](OC(=O)c3ccccc3)[C@]3(O)C[C@H](OC(=O)[C@H](O)[C@H](C=C(C)C)NC(=O)OC(C)(C)C)C(C)=C1C3(C)C)[C@]1(OC(C)=O)CO[C@@H]1C[C@@H]2O`, in assay [1], the Ratio is listed as 2.7. In assay [2], the IC50 was determined as 2.1 nM.
The like results for `CC(=O)O[C@@]12CO[C@@H]1C[C@H](O)[C@@]1(C)C(=O)[C@H](OC(=O)c3ccccc3)C3=C(C)[C@@H](OC(=O)[C@H](O)[C@H](C=C(C)C)NC(=O)OC(C)(C)C)C[C@@](O)([C@@H](OC(=O)c4ccccc4)[C@H]21)C3(C)C` were, in that order, 2.7 and 1.8 nM.
For `COc1ccccc1CC(=O)O[C@H]1C(=O)[C@@]2(C)[C@H]([C@H](OC(=O)c3ccccc3)[C@]3(O)C[C@H](OC(=O)[C@H](O)[C@H](C=C(C)C)NC(=O)OC(C)(C)C)C(C)=C1C3(C)C)[C@]1(OC(C)=O)CO[C@@H]1C[C@@H]2O`, the Ratio in assay [1] is reported as 6. For the same compound, it took 2.3 nM to reach half-maximal inhibition in assay [2] (IC50).
`COc1cccc(CC(=O)O[C@H]2C(=O)[C@@]3(C)[C@H]([C@H](OC(=O)c4ccccc4)[C@]4(O)C[C@H](OC(=O)[C@H](O)[C@H](C=C(C)C)NC(=O)OC(C)(C)C)C(C)=C2C4(C)C)[C@]2(OC(C)=O)CO[C@@H]2C[C@@H]3O)c1`: in assay [1], the Ratio was determined as 9.7. For the same compound, the half-inhibitory concentration (IC50) in assay [2] was 2.1 nM.
In turn, `CCC(=O)O[C@H]1C(=O)[C@@]2(C)[C@H]([C@H](OC(=O)c3cccc(OC)c3)[C@]3(O)C[C@H](OC(=O)[C@H](O)[C@@H](NC(=O)OC(C)(C)C)[C@H]4CC4(C)C)C(C)=C1C3(C)C)[C@]1(OC(C)=O)CO[C@@H]1C[C@@H]2O` displayed an IC50 in assay [2] of 0.48 nM.
Take `CCC(=O)O[C@H]1C(=O)[C@@]2(C)[C@H]([C@H](OC(=O)c3cccc(OC)c3)[C@]3(O)C[C@H](OC(=O)[C@H](O)[C@H](C=C(F)F)NC(=O)OC(C)(C)C)C(C)=C1C3(C)C)[C@]1(OC(C)=O)CO[C@@H]1C[C@@H]2O`: in the assay with MCF7 [3], the Ratio is listed as 1.7. For the same compound, the IC50 was determined as 0.34 nM in the assay on MCF7 [4] and 0.57 nM in the assay with MCF7 [5].
`CC(=O)O[C@H]1C(=O)[C@@]2(C)[C@H]([C@H](OC(=O)c3cccc(C)c3)[C@]3(O)C[C@H](OC(=O)[C@H](O)[C@H](C=C(C)C)NC(=O)OC(C)(C)C)C(C)=C1C3(C)C)[C@]1(OC(C)=O)CO[C@@H]1C[C@@H]2O` registered an IC50 in assay [2] of 1.5 nM.
In turn, `C=Cc1cccc(C(=O)O[C@H]2[C@@H]3[C@]4(OC(C)=O)CO[C@@H]4C[C@H](O)[C@@]3(C)C(=O)[C@H](OC(=O)CC)C3=C(C)[C@@H](OC(=O)[C@H](O)[C@H](C=C(C)C)NC(=O)OC(C)(C)C)C[C@]2(O)C3(C)C)c1` showed an IC50 in assay [2] of 2.9 nM.
For `COc1cccc(C(=O)O[C@H]2[C@@H]3[C@]4(OC(C)=O)CO[C@@H]4C[C@H](O)[C@@]3(C)C(=O)[C@H](OC(=O)C3CC3)C3=C(C)[C@@H](OC(=O)[C@H](O)[C@H](C=C(C)C)NC(=O)OC(C)(C)C)C[C@]2(O)C3(C)C)c1`, in assay [1], the Ratio is reported as 2.9. This compound came in with a half-maximal inhibitory concentration (IC50) in assay [2] of 1 nM.
As for `COC(=O)O[C@H]1C(=O)[C@@]2(C)[C@H]([C@H](OC(=O)c3cccc(N=[N+]=[N-])c3)[C@]3(O)C[C@H](OC(=O)[C@H](O)[C@H](C=C(F)F)NC(=O)OC(C)(C)C)C(C)=C1C3(C)C)[C@]1(OC(C)=O)CO[C@@H]1C[C@@H]2O`, in the assay on MCF7 [3], the Ratio is given as 5.3. For the same compound, the IC50 in the assay with MCF7 [4] came out at 0.078 nM; with MCF7 [5], 0.4 nM.
Regarding `COc1cccc(C(=O)O[C@H]2[C@@H]3[C@]4(OC(C)=O)CO[C@@H]4C[C@H](O)[C@@]3(C)C(=O)[C@H](OC(C)=O)C3=C(C)[C@@H](OC(=O)[C@H](O)[C@H](C=C(C)C)NC(=O)OC(C)(C)C)C[C@]2(O)C3(C)C)c1`, in assay [2], the IC50 amounted to 0.6 nM.
Regarding `CC(=O)O[C@@]12CO[C@@H]1C[C@H](O)[C@@]1(C)C(=O)[C@H](OC(=O)C3CC3)C3=C(C)[C@@H](OC(=O)[C@H](O)[C@H](C=C(F)F)NC(=O)OC(C)(C)C)C[C@@](O)([C@@H](OC(=O)c4cccc(N=[N+]=[N-])c4)[C@H]21)C3(C)C`, the Ratio with MCF7 [3] is given as 4.9. Moreover, the values for the concentration for half-maximal inhibition (IC50) in the assay on MCF7 [4] and in the assay on MCF7 [5] were 0.092 nM and 0.45 nM, respectively.
With `COc1ccccc1CCC(=O)O[C@H]1C(=O)[C@@]2(C)[C@H]([C@H](OC(=O)c3ccccc3)[C@]3(O)C[C@H](OC(=O)[C@H](O)[C@H](C=C(C)C)NC(=O)OC(C)(C)C)C(C)=C1C3(C)C)[C@]1(OC(C)=O)CO[C@@H]1C[C@@H]2O`, the Ratio in assay [1] turned out to be 3.3. The compound also had an IC50 in assay [2] of 1.5 nM.
In the case of `COc1ccc(C(=O)O[C@H]2C(=O)[C@@]3(C)[C@H]([C@H](OC(=O)c4ccccc4)[C@]4(O)C[C@H](OC(=O)[C@H](O)[C@H](C=C(C)C)NC(=O)OC(C)(C)C)C(C)=C2C4(C)C)[C@]2(OC(C)=O)CO[C@@H]2C[C@@H]3O)cc1`, in assay [1], the Ratio is 1.2. This compound also gave an IC50 in assay [2] of 3.8 nM.
Compound `CCC(=O)O[C@H]1C(=O)[C@@]2(C)[C@H]([C@H](OC(=O)c3cccc(N=[N+]=[N-])c3)[C@]3(O)C[C@H](OC(=O)[C@H](O)[C@H](CC(C)C)NC(=O)OC(C)(C)C)C(C)=C1C3(C)C)[C@]1(OC(C)=O)CO[C@@H]1C[C@@H]2O` yielded an IC50 in assay [2] of 1.1 nM.
`CCC(=O)O[C@H]1C(=O)[C@@]2(C)[C@H]([C@H](OC(=O)c3cccc(F)c3)[C@]3(O)C[C@H](OC(=O)[C@H](O)[C@H](C=C(C)C)NC(=O)OC(C)(C)C)C(C)=C1C3(C)C)[C@]1(OC(C)=O)CO[C@@H]1C[C@@H]2O` had an IC50 in assay [2] of 0.5 nM.
As for `CC(=O)O[C@@]12CO[C@@H]1C[C@H](O)[C@@]1(C)C(=O)[C@H](OC(=O)CCc3ccccc3)C3=C(C)[C@@H](OC(=O)[C@H](O)[C@H](C=C(C)C)NC(=O)OC(C)(C)C)C[C@@](O)([C@@H](OC(=O)c4ccccc4)[C@H]21)C3(C)C`, in assay [1], the Ratio is 6.1. In assay [2], this compound displayed an IC50 of 5.1 nM.
For `CCC(=O)O[C@H]1C(=O)[C@@]2(C)[C@H]([C@H](OC(=O)c3cccc(N=[N+]=[N-])c3)[C@]3(O)C[C@H](OC(=O)[C@H](O)[C@H](C=C(C)C)NC(=O)OC(C)(C)C)C(C)=C1C3(C)C)[C@]1(OC(C)=O)CO[C@@H]1C[C@@H]2O`, in assay [2], inhibition was half-maximal at 0.9 nM (IC50).
With `CC(=O)O[C@@]12CO[C@@H]1C[C@H](O)[C@@]1(C)C(=O)[C@H](O)C3=C(C)[C@@H](OC(=O)[C@H](O)[C@@H](NC(=O)OC(C)(C)C)c4ccccc4)C[C@@](O)([C@@H](OC(=O)c4ccccc4)[C@H]21)C3(C)C.O.O.O` [DOCETAXEL], the IC50 with MCF7 [5] was found to be 215 nM; in assay [2], 1 nM; in the assay on HT-29 it was 1 nM.
For the compound `COc1cccc(CCC(=O)O[C@H]2C(=O)[C@@]3(C)[C@H]([C@H](OC(=O)c4ccccc4)[C@]4(O)C[C@H](OC(=O)[C@H](O)[C@H](C=C(C)C)NC(=O)OC(C)(C)C)C(C)=C2C4(C)C)[C@]2(OC(C)=O)CO[C@@H]2C[C@@H]3O)c1`, in assay [1], the Ratio was determined as 1.8. Besides, the IC50 in assay [2] stood at 3.7 nM.
In the case of `COc1ccc(CCC(=O)O[C@H]2C(=O)[C@@]3(C)[C@H]([C@H](OC(=O)c4ccccc4)[C@]4(O)C[C@H](OC(=O)[C@H](O)[C@H](C=C(C)C)NC(=O)OC(C)(C)C)C(C)=C2C4(C)C)[C@]2(OC(C)=O)CO[C@@H]2C[C@@H]3O)cc1`, the Ratio in assay [1] is 2.9. In addition, the IC50 in assay [2] is 1.7 nM.
The compound `CCC(=O)O[C@H]1C(=O)[C@@]2(C)[C@H]([C@H](OC(=O)c3cccc(Cl)c3)[C@]3(O)C[C@H](OC(=O)[C@H](O)[C@H](C=C(C)C)NC(=O)OC(C)(C)C)C(C)=C1C3(C)C)[C@]1(OC(C)=O)CO[C@@H]1C[C@@H]2O` showed an IC50 in assay [2] of 0.8 nM.
In the case of `CC(=O)O[C@@]12CO[C@@H]1C[C@H](O)[C@@]1(C)C(=O)[C@H](OC(=O)c3cccc4ccccc34)C3=C(C)[C@@H](OC(=O)[C@H](O)[C@H](C=C(C)C)NC(=O)OC(C)(C)C)C[C@@](O)([C@@H](OC(=O)c4ccccc4)[C@H]21)C3(C)C`, the Ratio in assay [1] was found to be 2.9. Also, in assay [2], it took 5.3 nM to reach half-maximal inhibition (IC50).
Take `COc1cccc(C(=O)O[C@H]2C(=O)[C@@]3(C)[C@H]([C@H](OC(=O)c4ccccc4)[C@]4(O)C[C@H](OC(=O)[C@H](O)[C@H](C=C(C)C)NC(=O)OC(C)(C)C)C(C)=C2C4(C)C)[C@]2(OC(C)=O)CO[C@@H]2C[C@@H]3O)c1`: the Ratio in assay [1] is 1.8. For the same compound, in assay [2], 2.8 nM corresponded to half-maximal inhibition (IC50).
As for `CCC(=O)O[C@H]1C(=O)[C@@]2(C)[C@H]([C@H](OC(=O)c3cccc(F)c3)[C@]3(O)C[C@H](OC(=O)[C@H](O)[C@H](CC(C)C)NC(=O)OC(C)(C)C)C(C)=C1C3(C)C)[C@]1(OC(C)=O)CO[C@@H]1C[C@@H]2O`, in assay [1], the Ratio turned out to be 6. Further, half-maximal inhibition in assay [2] (IC50) required 0.4 nM.
For `CC(=O)O[C@@]12CO[C@@H]1C[C@H](O)[C@@]1(C)C(=O)[C@H](OC(=O)c3ccc4ccccc4c3)C3=C(C)[C@@H](OC(=O)[C@H](O)[C@H](C=C(C)C)NC(=O)OC(C)(C)C)C[C@@](O)([C@@H](OC(=O)c4ccccc4)[C@H]21)C3(C)C`, the Ratio in assay [1] was found to be 2.4. Moreover, half-maximal inhibition in assay [2] (IC50) was put at 6.3 nM.
As for `C/C=C/[C@H](NC(=O)OC(C)(C)C)[C@@H](O)C(=O)O[C@H]1C[C@@]2(O)[C@@H](OC(=O)c3cccc(OC)c3)[C@@H]3[C@]4(OC(C)=O)CO[C@@H]4C[C@H](O)[C@@]3(C)C(=O)[C@H](OC(=O)CC)C(=C1C)C2(C)C`, the 50% inhibitory concentration (IC50) in assay [2] amounted to 1.2 nM.

The values are drawn from ChEMBL document CHEMBL1152321, “Recent advances in the chemistry and biology of new generation taxoids” (J Nat Prod, 2009).
